The values below come from patent US5491172A, “N-acyl sulfamic acid esters (or thioesters), N-acyl sulfonamides, and N-sulfonyl carbamic acid esters (or thioesters) as hypercholesterolemic agents” (Warner-Lambert Company, priority 1994, dated 1996).

Test [1] deals with acyl-CoA:cholesterol acyltransferase (ACAT). Put plainly: in vitro ACAT inhibition (LAI): radiolabeled cholesterol oleate formed from radiolabeled oleic acid in rat liver microsomes. Conditions: concentration required to inhibit enzyme activity by 50%. The format is biochemical. On the procedure:
The ability of representative compounds of the present invention to inhibit ACAT was measured using an in vitro test more fully described in Field FJ, Salone RG, Biochemica et Biophysica, 1982;712:557-570. The test assesses the ability of a test compound to inhibit the acylation of cholesterol by oleic acid by measuring the amount of radiolabeled cholesterol oleate formed from radiolabeled oleic acid in a tissue preparation containing rat liver microsomes.

Test [2] is described as follows: in vivo screen APCC: blood cholesterol in rats fed overnight a high fat, high cholesterol (PCC) diet. The settings on record: male Sprague-Dawley rats, dosed at 4 PM, PCC diet with 0.5% cholic acid overnight, blood sampled 8 AM, dose not given. An excerpt:
In one in vivo screen designated APCC, male Sprague-Dawley rats (200 to 225 g) were randomly divided into treatment groups and dosed at 4 PM with either vehicle (CMC/Tween) or suspensions of compounds in vehicle. The normal chow diet was then replaced with a high fat, high cholesterol diet (designated PCC) containing 0.5% cholic acid. The rats consumed this diet ad libitum during the night and were sacrificed at 8 AM to obtain blood samples for cholesterol analysis using standard procedures. Statistical differences between mean cholesterol values for the same vehicle were determined using analysis of variance followed by Fisher's least significant test.

Molecules are shown by their SMILES.

Turning to `CC(C)c1cccc(C(C)C)c1OS(=O)(=O)NC(=O)CC12CC3CC(CC(C3)C1)C2` [Example 4, sulfamic acid[adamantaneacetyl]-2,6-bis[1-methylethyl]phenyl ester], the IC50 (in general, the midpoint of a concentration-inhibition curve) in test [1] was 13 µM. Moreover, the “% Change (mg/dl) in cholesterol” value in test [2] is listed as -47%.
On the same counts, the results for `CC(C)c1cc(C(C)C)c(CCC(=O)NS(=O)(=O)Oc2c(C(C)C)cccc2C(C)C)c(C(C)C)c1` [Example 41, sulfamic acid[1-oxo-3-[2,4,6-tris(1-methylethyl)phenyl]propyl]-2,6-bis(1-methylethyl)phenyl ester] are 28 µM and -73%.
In turn, `CC(C)c1cccc(C(C)C)c1CC(=O)NS(=O)(=O)Oc1c(C(C)C)cccc1C(C)C` [Example 1, sulfamic acid[[2,6-bis(1-methylethyl)phenyl]acetyl]-2,6-bis(1-methylethyl)phenyl ester] came in with an IC50 in test [1] of 9.7 µM. In test [2], the “% Change (mg/dl) in cholesterol” value was -63%.
For `CC(C)c1cccc(C(C)C)c1OS(=O)(=O)NC(=O)C(C)c1ccccc1` (stereo not shown) [Example 24, sulfamic acid(1-oxo-2-phenylpropyl)-2,6-bis(1-methylethyl)phenyl ester], the IC50 in test [1] amounted to 26 µM. Besides, in test [2], the “% Change (mg/dl) in cholesterol” value was -24%.
For `CC(C)c1cccc(C(C)C)c1OS(=O)(=O)NC(=O)Cc1ccsc1` [Example 20, sulfamic acid[3-thiophenyl(acetyl)]-2,6-bis(1-methylethyl)phenyl ester], in test [1], the IC50 is > 50 µM. Further, the “% Change (mg/dl) in cholesterol” value in test [2] was -19%.
With `CC(C)c1cccc(C(C)C)c1OS(=O)(=O)NC(=O)Cc1ccccc1C(F)(F)F` [Example 23, sulfamic acid[2-trifluoromethylphenyl(acetyl)]-2,6-bis(1-methylethyl)phenyl ester], in test [1], the IC50 is 12 µM. Also, in test [2], the “% Change (mg/dl) in cholesterol” value was -19%.
Regarding `CC(C)c1cccc(C(C)C)c1OS(=O)(=O)NC(=O)C1c2ccccc2-c2ccccc21` [Example 37, sulfamic acid[(9H-fluoren-9yl)carbonyl]-2,6-bis(1-methylethyl)phenyl ester], in test [1], the IC50 amounted to 16 µM. The “% Change (mg/dl) in cholesterol” value in test [2] is on record as -50%.
In turn, `CC(C)c1cc(C(C)C)c(C=CC(=O)NS(=O)(=O)Oc2c(C(C)C)cccc2C(C)C)c(C(C)C)c1` [Example 40, sulfamic acid[1-oxo-3-[2,4,6-tris-(1-methylethyl)phenyl]-2-propenyl]-2,6-bis-(1-methylethyl)phenyl ester] had an IC50 in test [1] of 32 µM. In addition, the “% Change (mg/dl) in cholesterol” value in test [2] was -54%.
As to `CCC(C(=O)NS(=O)(=O)Oc1c(C(C)C)cccc1C(C)C)c1ccccc1` (stereo not shown) [Example 32, sulfamic acid(1-oxo-2-phenylbutyl)-2,6-bis(1-methylethyl)phenyl ester], in test [1], the IC50 turned out to be 8.9 µM. Further, in test [2], the “% Change (mg/dl) in cholesterol” value is reported as -48%.
As for `CC(C)c1cc(C(C)C)c(CC(=O)NS(=O)(=O)Oc2c(C(C)C)cc(C(C)C)cc2C(C)C)c(C(C)C)c1` [Example 8, sulfamic acid[[2,4,6-tris(1-methylethyl)phenyl]acetyl]-2,4,6-tris(1-methylethyl)phenyl ester], the IC50 in test [1] was 21 µM. The “% Change (mg/dl) in cholesterol” value in test [2] was -66%.
Consider `CC(C)c1cc(C(C)C)c(C(F)C(=O)NS(=O)(=O)Oc2c(C(C)C)cccc2C(C)C)c(C(C)C)c1` (stereo not shown) [Example 44, sulfamic acid[fluoro[2,4,6-tris(1-methylethyl)phenyl]acetyl]-2,6-bis(1-methylethyl)phenyl ester], for which the IC50 in test [1] worked out at 9.4 µM. In addition, the “% Change (mg/dl) in cholesterol” value in test [2] is -74%.
In the case of `CC(C)c1cccc(C(C)C)c1OS(=O)(=O)NC(=O)C(=O)c1ccccc1` [Example 22, sulfamic acid(oxophenylacetyl)-2,6-bis(1-methylethyl)phenyl ester], 50 µM corresponded to half-maximal inhibition in test [1] (IC50). Besides, in test [2], the “% Change (mg/dl) in cholesterol” value was -23%.
On the same counts, the results for `COc1ccccc1CC(=O)NS(=O)(=O)Oc1c(C(C)C)cccc1C(C)C` [Example 21, sulfamic acid[2-methoxyphenyl(acetyl)]-2,6-bis(1-methylethyl)phenyl ester] are 55 µM and -16%.
For the compound `CCC(C)C(C(=O)NS(=O)(=O)Oc1c(C(C)C)cccc1C(C)C)c1ccccc1` (stereo not shown) [Example 31, sulfamic acid(3-methyl-1-oxo-2-phenylpentyl)-2,6-bis(1-methylethyl)phenyl ester], inhibition in test [1] was half-maximal at 3.3 µM (IC50). For the same compound, the “% Change (mg/dl) in cholesterol” value in test [2] is reported as -30%.
On the same counts, the results for `CC(C)c1cccc(C(C)C)c1OS(=O)(=O)NC(=O)C1CCc2ccccc2C1` (stereo not shown) [Example 29, sulfamic acid[(1,2,3,4-tetrahydro-2-naphthyl)carbonyl]-2,6-bis(1-methylethyl)phenylester] are 15 µM and -9%.
As to `CC(C)c1cccc(C(C)C)c1OS(=O)(=O)NC(=O)C1(c2ccccc2)CCCC1` [Example 30, sulfamic acid[(1-phenylcyclopentyl)carbonyl]-2,6-bis(1-methylethyl)phenyl ester], 4.1 µM corresponded to half-maximal inhibition in test [1] (IC50). Further, the “% Change (mg/dl) in cholesterol” value in test [2] was -40%.
On the same counts, the results for `COc1ccc(OC)c(CC(=O)NS(=O)(=O)Oc2c(C(C)C)cccc2C(C)C)c1` [Example 16, sulfamic acid[2,5-dimethoxyphenyl(acetyl)]-2,6-bis(1-methylethyl)phenyl ester] are 36 µM and “+10%”.
